The source of these data is US20080254993A1, “Use of abscisic acid analogs to enhance growth control” (priority 2007, published 2008).

Each structure is given as a SMILES string.

One assay has as its system creeping bentgrass. Put plainly: Golf course green field study on creeping bentgrass with PBI-702: turfgrass height, soil moisture, turf quality (Example 3). In kind it is in vivo, Penncross creeping bentgrass. Conditions: for Soil moisture / Turfgrass height / Turf quality: 50 ppm PBI-702 alone; for Turf quality: visual 0-9 scale, 9 best. As for the experimental part: Field studies were conducted at the nursery green or the practice green at Countryside golf course (Mundelein, Ill.). Both greens were sand based and growing Penncross creeping bentgrass. Grass was managed with typical Illinois golf course management practices.
(§1) Chemical solutions were prepared with distilled water. Tween 20 (0.05% v/v) was used as the surfactant when necessary. Trinexapac-ethyl (commercial product Primo Maxx, 11.3% active ingredient) was purchased from Syngenta Crop Protection Inc. (Greensboro, N.C.). ABA analogs, 8′ acetylene-ABA, acid (PBI-524), 8′ acetylene-ABA, ester (PBI-429), 8′ cyclopropane ester (PBI-696), or Tetralone, first carbon tail acetylene, ester (PBI-702), were obtained from Plant Biotechnology Institute, National Research Council of Canada (Saskatoon, Saskatchewan, Canada).
(§2) Chemical solutions were foliar applied to the turfgrass canopy at the rate of 4-gallons/1000 square foot (or 0.163 L/m^−2) immediately after finishing the preparation of solutions. After treatment, turfgrasses were arranged in a randomized complete block experimental design. Turfgrass quality, turfgrass height or clip fresh weight was measured on assigned dates. Turfgrass quality was visually rated on a 0-9 scale based on the color, uniformity, and density of the grass with 0 as the worst and 9 as the best. Turfgrass height was measured as the distance between canopy surface and soil. Clippings were collected form each plot; all plots were cut to a uniform height.
(§3) All experiments were randomized complete block experimental design. Data were analyzed by analysis of variance. Duncan's new multiple range tests at α=0.05 were used for mean separations.
Trinexapac-ethyl (25 ppm) or PBI-702 (50 ppm) were one time foliar applied alone or in combination to creeping bentgrass in the golf course green to investigate their effect on turfgrass quality, growth inhibition and soil moisture.

In another assay the test system is Kentucky bluegrass. Put plainly: Greenhouse study on Kentucky bluegrass: turfgrass height, clip weight, turfgrass quality (Example 1). In kind it is in vivo. As for the experimental part:
Greenhouse studies were conducted at the Research Farm of Valent BioSciences Corporation (Long Grove, Ill.). Grasses were grown in pots (18 cm in diameter and 18 cm in height) filled with Promix BX (available from Premier Horticulture Inc. Quakertown, Pa.). Grass was irrigated daily by an overhead irrigation system. The irrigation system was set up with multiple Tornado Mist Spray Heads (10 GPH at 40 PSI-Wetted diameter, NDS/Raindrip, Woodland Hills, Calif.). Spray heads were 1-meter apart from each other and 75 cm above grass canopy. Grass was cut with a scissor at 2.5 cm height and fertilizer (1 g/L all purpose fertilizer 20-20-20, available from The Scotts Company, Marysville, Ohio) was applied once per week.
as §1, §2, §3
Kentucky bluegrass sod was purchased from Deak sod farms, Inc. (Union Grove, Wis.). Grass was grown in the greenhouse for 94 days for establishment. Turfgrass was treated with one time foliar application of 50 ppm PBI-524, PBI-429, PBI-696 or PBI-702 alone or in combination with 250 ppm trinexapac-ethyl. The turfgrass was cut every 7 days. Turfgrass quality, turfgrass height, and clip weight were measured on days 7 and 35 after treatment.

The mark [1] stands for this setting: 7 days after treatment, 50 ppm ABA analog alone.
[2] abbreviates: 35 days after treatment, 50 ppm ABA analog alone.

Regarding `COC(=O)/C=C(/C)C#CC1(O)c2ccccc2C(=O)CC1(C)C` (stereo not shown) [PBI-702, Tetralone, first carbon tail acetylene, ester], in the assay on creeping bentgrass (4 days after treatment), the Soil moisture was 12.3% and the Turfgrass height was 6.7 mm. Also, in the assay with creeping bentgrass (7 days after treatment), the Soil moisture was 11.5%, the Turfgrass height is listed as 6.5 mm and the Turf quality worked out at 7.3. For the same molecule, in the assay with creeping bentgrass (7 days after treatment, trinexapac-ethyl 25 ppm, PBI-702 50 ppm, alone or combined), the “Reducing growth (in words)” value is “effective at reducing growth”. In the assay with creeping bentgrass (38 days after treatment), the Soil moisture amounted to 12.4%, the Turfgrass height is 5.5 mm and the Turf quality stood at 7.6.
Turning to `C#CC1(C)CC(=O)C=C(C)C1(O)C=CC(C)=CC(=O)O` (stereo not shown) [PBI-524, 8′ acetylene-ABA, acid], in the assay on Kentucky bluegrass (setting [1]), the “Clip Weight” value came to 0.5 g and the Turfgrass height was found to be 5.8 cm. Besides, the Turfgrass quality with Kentucky bluegrass (7 days after treatment, 50 ppm ABA analog alone, visual 0-9 scale, 9 best) came out at 6.6. For the same molecule, the “Turfgrass height and clip weight compared to the control (in words)” value in the assay on Kentucky bluegrass (7 days after treatment, trinexapac-ethyl 250 ppm, PBI-524 or PBI-429 50 ppm, alone or combined) is “reduced turfgrass height and clip weight compared to the control”. Further, in the assay with Kentucky bluegrass (setting [2]), the “Clip Weight” value was 1.9 g; the Turfgrass height amounted to 8.0 cm; the “Turfgrass height and clip weight (in words)” value was “no longer reduced turfgrass height and clip weight”.
